For this assay, the system named is potato 5-Lipoxygenase enzyme. The assay can be described thus: Lipoxygenase Inhibitor Screening Assay Kit (Cayman) with potato 5-Lipoxygenase. The note with it: positive control at 100 μM. The class given is biochemical.

Each structure is given as a SMILES string.

Method: Research grade reagents were used for the rest of the assay preparations. Extracts were dissolved in dimethyl sulfoxide (‘DMSO’) to a final concentration of 50 mg/mL, and then diluted in appropriate buffer for each bioassay to working concentrations.
This kit measures hydroperoxides produced in the lipoxygenation reaction.
The extracts were dissolved in methanol to final working concentrations. 5-LOX enzyme, Chromagen, and Linoleic Acid solutions were prepared immediately before use. Nordihydroguaiaretic acid (‘NDGA’) was used as a positive control. 5-LOX enzyme was added to the test samples and controls and incubated for five minutes at room temperature to allow for enzyme/inhibitor interaction. Linoleic acid substrate was added to the plate to initiate the reaction, and the plate was then shaken at room temperature for 10 minutes. Chromagen was added to visualize the hydroperoxides formed during the reaction and the plate was shaken at room temperature for another five minutes. The absorbance was then read at 492 nm. Percent inhibition of the extract concentration was calculated in comparison to the uninhibited control wells.

`CC(Cc1ccc(O)c(O)c1)C(C)Cc1ccc(O)c(O)c1` (stereo not shown) [NDGA, Nordihydroguaiaretic acid] showed a 5-LOX enzyme inhibition of 100%.

(Values after patent publication US11311590B2, “Anti-inflammatory botanical extract” (Innophos, Inc., priority 2018, dated 2022).)
